In ChEMBL document CHEMBL3826930, “Antitumor activities of biscoumarin and dihydropyran derivatives” (Bioorg Med Chem Lett, 2016):
Converted amounts (≈) assume the structure as drawn.

Legend:
HEK293 [1] = test: Selectivity index, ratio of IC50 for HEK293 cells to IC50 for human PANC1 cells; assay type: functional
Mus musculus [2] = test: Acute toxicity in Kunming mouse assessed as physical/abnormal changes in fur at 500 mg/kg, administered as single dose after 14 days; assay type: organism-based; details: in vivo, 336 h
Mus musculus [3] = test: Acute toxicity in Kunming mouse assessed as physical/abnormal changes in mucus membrane at 500 mg/kg, administered as single dose after 14 days; assay type: organism-based; details: in vivo, 336 h
[4] = Antiproliferative activity against human PANC1 cells after 48 hrs by MTT assay; assay type: functional, cell-based; details: PANC-1, 48 h
Mus musculus [5] = test: Acute toxicity in Kunming mouse assessed as structural abnormality in liver at 500 mg/kg, administered as single dose after 14 days by hematoxylin and eosin staining based histological analysis; assay type: organism-based; details: in vivo, 336 h
Mus musculus [6] = test: Acute toxicity in Kunming mouse assessed as physical/abnormal changes in eyes at 500 mg/kg, administered as single dose after 14 days; assay type: organism-based; details: in vivo, 336 h
Mus musculus [7] = test: Acute toxicity in Kunming mouse assessed as behavior pattern abnormality at 500 mg/kg, administered as single dose after 14 days; assay type: organism-based; details: in vivo, 336 h
Mus musculus [8] = test: Acute toxicity in Kunming mouse assessed as sleep pattern abnormality at 500 mg/kg, administered as single dose after 14 days; assay type: organism-based; details: in vivo, 336 h
PANC-1 = test: Selectivity index, ratio of IC50 for HUVEC to IC50 for human PANC1 cells
4T1 [9] = test: Antiproliferative activity against mouse 4T1 cells after 48 hrs by MTT assay; assay type: functional, cell-based; details: 4T1, 48 h
[10] = Antiproliferative activity against human HuTu 80 cells after 48 hrs by MTT assay; assay type: functional, cell-based; details: HuTu80, 48 h
HuTu80 [11] = test: Selectivity index, ratio of IC50 for HUVEC to IC50 for human HuTu 80 cells
Mus musculus [12] = test: Acute toxicity in Kunming mouse assessed as physical/abnormal changes in skin at 500 mg/kg, administered as single dose after 14 days; assay type: organism-based; details: in vivo, 336 h
Mus musculus [13] = test: Acute toxicity in Kunming mouse assessed as induction of salivation at 500 mg/kg, administered as single dose after 14 days; assay type: organism-based; details: in vivo, 336 h
4T1 [14] = test: Selectivity index, ratio of IC50 for HUVEC to IC50 for mouse 4T1 cells
Mus musculus [15] = test: Acute toxicity in Kunming mouse assessed as survival at 500 mg/kg, administered as single dose measured on day 14 post dose; assay type: organism-based; details: in vivo
HEK293 [16] = test: (§1) Cytotoxicity against HEK293 cells assessed as reduction in cell survival after 48 hrs by MTT assay; assay type: cell-based, Homo sapiens; details: Homo sapiens, HEK293, 48 h
[17] = as §1; assay type: cell-based, Homo sapiens; details: human, HEK293 cells
Mus musculus [18] = test: Acute toxicity in Kunming mouse assessed as tremor induction at 500 mg/kg, administered as single dose after 14 days; assay type: organism-based; details: in vivo, 336 h
Mus musculus [19] = test: Acute toxicity in Kunming mouse assessed as structural abnormality in kidney at 500 mg/kg, administered as single dose after 14 days by hematoxylin and eosin staining based histological analysis; assay type: organism-based; details: in vivo, 336 h
HEK293 [20] = test: Selectivity index, ratio of IC50 for HEK293 cells to IC50 for human HuTu 80 cells; assay type: functional
HEK293 [21] = test: Selectivity index, ratio of IC50 for HEK293 cells to IC50 for mouse 4T1 cells; assay type: functional
[22] = (§2) Cytotoxicity against HUVEC assessed as reduction in cell survival after 48 hrs by MTT assay; assay type: cell-based, Homo sapiens; details: human, HUVEC cells
HUVEC = test: as §2; assay type: cell-based, Homo sapiens; details: Homo sapiens, HUVEC, 48 h
HuTu80 [23] = test: Induction of apoptosis in human HuTu 80 cells assessed as live cells at 3 ug/ml after 48 hrs by Annexin V/propidium iodide staining based flow cytometry (reference value: 92.5%); assay type: functional
[24] = Cell cycle arrest in human HuTu 80 cells assessed as accumulation at S phase at 3 ug/ml after 48 hrs by propidium iodide staining based flow cytometry (reference value: 15.79 to 15.8%); assay type: functional; details: HuTu80
[25] = Cell cycle arrest in human HuTu 80 cells assessed as accumulation at G1 phase at 3 ug/ml after 48 hrs by propidium iodide staining based flow cytometry (reference value: 43.3 to 43.32%); assay type: functional; details: HuTu80
[26] = Cell cycle arrest in human HuTu 80 cells assessed as accumulation at subG1 phase at 3 ug/ml after 48 hrs by propidium iodide staining based flow cytometry (reference value: 2.27 to 2.3%); assay type: functional; details: HuTu80
HuTu80 [27] = test: Induction of apoptosis in human HuTu 80 cells assessed as late apoptotic cells at 3 ug/ml after 48 hrs by Annexin V/propidium iodide staining based flow cytometry (reference value: 1.6%); assay type: functional
[28] = Cell cycle arrest in human HuTu 80 cells assessed as accumulation at G2/M phase at 3 ug/ml after 48 hrs by propidium iodide staining based flow cytometry (reference value: 23.2%); assay type: functional; details: HuTu80
HuTu80 [29] = test: Induction of apoptosis in human HuTu 80 cells assessed as necrotic cells at 3 ug/ml after 48 hrs by Annexin V/propidium iodide staining based flow cytometry (reference value: 5.3%); assay type: functional
HuTu80 [30] = test: Induction of apoptosis in human HuTu 80 cells assessed as early apoptotic cells at 3 ug/ml after 48 hrs by Annexin V/propidium iodide staining based flow cytometry (reference value: 0.5%); assay type: functional

With COc1ccccc1C(c1c(O)c2ccccc2oc1=O)c1c(O)c2ccccc2oc1=O the “Ratio IC50” value (HEK293 [1]) was 1.9, the Activity (Mus musculus [2]) was “Non-toxic” and the Activity (Mus musculus [3]) was “Non-toxic”. For the same compound, the IC50 [4] was 62.1 µg/mL (≈ 140 µM), the IC90 [4] was 110 µg/mL (≈ 249 µM) and the Activity (Mus musculus [5]) was “Non-toxic”. The Activity (Mus musculus [6]) was “Non-toxic”, the Activity (Mus musculus [7]) was “Non-toxic” and the Activity (Mus musculus [8]) was “Non-toxic”. For the same compound, the “Ratio IC50” value (PANC-1) was 1.9, the IC50 (4T1 [9]) was 52.2 µg/mL (≈ 118 µM) and the IC90 (4T1 [9]) was 133 µg/mL (≈ 301 µM). The IC50 [10] was 17.9 µg/mL (≈ 40.5 µM), the IC90 [10] was 110 µg/mL (≈ 248 µM) and the “Ratio IC50” value (HuTu80 [11]) was 6.7. For the same compound, the Activity (Mus musculus [12]) was “Non-toxic”, the Activity (Mus musculus [13]) was “Non-toxic” and the “Ratio IC50” value (4T1 [14]) was 2.3. The Activity (Mus musculus [15]) was “Non-toxic”, the IC50 (HEK293 [16]) was 117 µg/mL (≈ 264 µM) and the IC90 at 48 h [17] was 282 µg/mL (≈ 638 µM). The Activity (Mus musculus [18]) was “Non-toxic”, the Activity (Mus musculus [19]) was “Non-toxic” and the “Ratio IC50” value (HEK293 [20]) was 6.5. The “Ratio IC50” value (HEK293 [21]) was 2.2, the IC90 at 48 h [22] was 269 µg/mL (≈ 607 µM) and the IC50 (HUVEC) was 119 µg/mL (≈ 270 µM).
For O=c1oc2ccccc2c(O)c1C(c1ccc(F)c(F)c1)c1c(O)c2ccccc2oc1=O, the Activity (HuTu80 [23]) was 88%, the “Ratio IC50” value (HEK293 [1]) was 1.3 and the Activity [24] was 18.5%. For the same compound, the Activity (Mus musculus [2]) was “Non-toxic”, the Activity (Mus musculus [3]) was “Non-toxic” and the IC50 [4] was 82.4 µg/mL (≈ 184 µM). The IC90 [4] was 155 µg/mL (≈ 346 µM), the Activity [25] was 26.1% and the Activity (Mus musculus [5]) was “Non-toxic”. For the same compound, the Activity [26] was 25.1%, the Activity (Mus musculus [6]) was “Non-toxic” and the Activity (Mus musculus [7]) was “Non-toxic”. For the same compound, the Activity (Mus musculus [8]) was “Non-toxic”, the “Ratio IC50” value (PANC-1) was 1.36 and the Activity (HuTu80 [27]) was 3.2%. The Activity [28] was 15.3%, the IC50 (4T1 [9]) was 47.9 µg/mL (≈ 107 µM) and the IC90 (4T1 [9]) was 98.4 µg/mL (≈ 219 µM). For the same compound, the IC50 [10] was 15 µg/mL (≈ 33.5 µM), the IC90 [10] was 28 µg/mL (≈ 62.4 µM) and the Activity (HuTu80 [29]) was 7.5%. The “Ratio IC50” value (HuTu80 [11]) was 7.5, the Activity (Mus musculus [12]) was “Non-toxic” and the Activity (Mus musculus [13]) was “Non-toxic”. For the same compound, the “Ratio IC50” value (4T1 [14]) was 2.3, the Activity (Mus musculus [15]) was “Non-toxic” and the IC50 (HEK293 [16]) was 107 µg/mL (≈ 239 µM). For the same compound, the IC90 at 48 h [17] was 221 µg/mL (≈ 492 µM), the Activity (Mus musculus [18]) was “Non-toxic” and the Activity (Mus musculus [19]) was “Non-toxic”. The Activity (HuTu80 [30]) was 1.2%, the “Ratio IC50” value (HEK293 [20]) was 7.1 and the “Ratio IC50” value (HEK293 [21]) was 2.2. The IC90 at 48 h [22] was 276 µg/mL (≈ 616 µM) and the IC50 (HUVEC) was 112 µg/mL (≈ 251 µM).
With N#CC1=C(N)Oc2c(c(=O)oc3ccccc23)C1c1ccc(C#N)cc1 (centres undefined) the IC50 [4] was over 300 µg/mL, the IC90 [4] was over 500 µg/mL and the IC50 (4T1 [9]) was over 300 µg/mL. For the same compound, the IC90 (4T1 [9]) was over 500 µg/mL, the IC50 [10] was over 300 µg/mL and the IC90 [10] was over 500 µg/mL.
CC1(C)CC(=O)C2=C(C1)OC(N)=C(C#N)C2c1cc(C(F)(F)F)cc(C(F)(F)F)c1 (centres undefined) showed an IC50 [4] of over 300 µg/mL, an IC90 [4] of over 500 µg/mL and an IC50 (4T1 [9]) of over 300 µg/mL. The IC90 (4T1 [9]) was over 500 µg/mL, the IC50 [10] was over 300 µg/mL and the IC90 [10] was over 500 µg/mL.
For COc1ccc(C(c2c(O)c3ccccc3oc2=O)c2c(O)c3ccccc3oc2=O)cc1, the “Ratio IC50” value (HEK293 [1]) was 3.9, the Activity (Mus musculus [2]) was “Non-toxic” and the Activity (Mus musculus [3]) was “Non-toxic”. The IC50 [4] was 42.5 µg/mL (≈ 96.1 µM), the IC90 [4] was 82.5 µg/mL (≈ 186 µM) and the Activity (Mus musculus [5]) was “Non-toxic”. For the same compound, the Activity (Mus musculus [6]) was “Non-toxic”, the Activity (Mus musculus [7]) was “Non-toxic” and the Activity (Mus musculus [8]) was “Non-toxic”. For the same compound, the “Ratio IC50” value (PANC-1) was 4.7, the IC50 (4T1 [9]) was 85.7 µg/mL (≈ 194 µM) and the IC90 (4T1 [9]) was 167 µg/mL (≈ 377 µM). The IC50 [10] was 53.8 µg/mL (≈ 122 µM), the IC90 [10] was 103 µg/mL (≈ 233 µM) and the “Ratio IC50” value (HuTu80 [11]) was 3.7. The Activity (Mus musculus [12]) was “Non-toxic”, the Activity (Mus musculus [13]) was “Non-toxic” and the “Ratio IC50” value (4T1 [14]) was 2.3. For the same compound, the Activity (Mus musculus [15]) was “Non-toxic”, the IC50 (HEK293 [16]) was 165 µg/mL (≈ 373 µM) and the IC90 at 48 h [17] was 322 µg/mL (≈ 727 µM). For the same compound, the Activity (Mus musculus [18]) was “Non-toxic”, the Activity (Mus musculus [19]) was “Non-toxic” and the “Ratio IC50” value (HEK293 [20]) was 3.1. For the same compound, the “Ratio IC50” value (HEK293 [21]) was 1.9, the IC90 at 48 h [22] was 363 µg/mL (≈ 821 µM) and the IC50 (HUVEC) was 199 µg/mL (≈ 450 µM).
N#CC1=C(N)Oc2c(c(=O)oc3ccccc23)C1c1ccc([N+](=O)[O-])cc1 (centres undefined) showed an IC50 [4] of 218 µg/mL (≈ 604 µM), an IC90 [4] of 348 µg/mL (≈ 963 µM) and an IC50 (4T1 [9]) of 142 µg/mL (≈ 394 µM). It also gave an IC90 (4T1 [9]) of 289 µg/mL (≈ 801 µM), an IC50 [10] of 97 µg/mL (≈ 268 µM) and an IC90 [10] of 187 µg/mL (≈ 518 µM).
Work on CC(C)c1ccc(C2C(C#N)=C(N)Oc3c2c(=O)oc2ccccc32)cc1 (centres undefined) yielded an IC50 [4] of 256 µg/mL (≈ 715 µM), an IC90 [4] of over 500 µg/mL and an IC50 (4T1 [9]) of over 300 µg/mL. For the same compound, the IC90 (4T1 [9]) was over 500 µg/mL, the IC50 [10] was 238 µg/mL (≈ 664 µM) and the IC90 [10] was over 500 µg/mL.
Compound N#CC1=C(N)Oc2c(c(=O)oc3ccccc23)C1c1ccc(Br)cc1 (centres undefined) has an IC50 [4] of over 300 µg/mL, an IC90 [4] of over 500 µg/mL and an IC50 (4T1 [9]) of over 300 µg/mL. It also gave an IC90 (4T1 [9]) of over 500 µg/mL, an IC50 [10] of over 300 µg/mL and an IC90 [10] of 447 µg/mL (≈ 1130 µM).
